Values joined by “and” are separate entries in the source; they are usually repeats but may differ in a detail not shown here. Identical values can stand only once.
How the values were obtained:
[1] = tested on: cell cycle regulatory proteins in HepG2 cells; test: Western blot of cell cycle regulatory proteins; conditions: HepG2, 24 h
Experimental: HepG2 cells were incubated with 2 and 3 at increasing concentrations for 24 h, and the expression of cell cycle regulatory proteins in the S phase was examined through Western blot analysis.

HepG2 cells [2] = test: Hoechst33258 assay; conditions: HepG2, 24 h; 2 at 3.5, 7.0, […]; 3 at 7.0, 14.0, 28.0 μM
Experimental: The Hoechst33258 assay is commonly used to measure the changes in cell morphology caused by apoptosis [55]. The HepG2 cells were incubated with 2 (3.5, 7.0, and 14.0 μM) and 3 (7.0, 14.0, and 28.0 μM) for 24 h, respectively, then stained with Hoechst33258 and examined under a fluorescence microscope (Figure 4A).
Hoechst33258 assay Cell cycle-, apoptotic-associated proteins used
The morphology characters of apoptosis of HepG2 western blotting analysis
cells treated with 2 and 3 were carried out by Hoechst Extraction of total protein
33258 staining. About 1×10^6 cells were seeded in six-well
plates, and treated with 2 (3.5, 7.0 and 14.0 μM) and 3 After HepG2 cells incubated with 2 (3.5, 7.0, 14.0
(7.0, 14.0 and 28.0 μM) for 24 h. The cells were fixed with μM) and 3 (7.0, 14.0, 28.0 μM) for 24 h, cells were
then stained with Hoechst 33258 for another 10 min in on ice.

BEL-7404 = test: MTT assay, BEL-7404 cells; format: cell-based, human; conditions: 48 h
NCI-H460 = test: MTT assay, NCI-H460 cells; format: cell-based, human; conditions: 48 h
HepG2 cells [3] = test: Cell cycle analysis by flow cytometry; format: cell-based, human
caspase-8 in HepG2 cells = test: Activated caspase-8 by flow cytometry; conditions: HepG2, at IC50, 24 h; control 2.1 %
Experimental: (§1) After treated, the cells were collected, and suspended in h at 37 °C in 5% CO2 incubator. The cells were harvested
(§2) with annexin V-FITC and PI for 1 h at room temperature cytometer equipped. The results were represented as the
(§3) in the dark and immediately analyzed by flow cytometry. percent change on the activity comparing with the control.
(§4) Caspase- 3, -8 and -9 activity determinations by our previously report [3].

T-24 = test: MTT assay, T-24 cells; format: cell-based, human; conditions: 48 h
HepG2 cells [4] = test: ROS, intracellular Ca2+ and mitochondrial membrane potential (DCFH-DA, Fluo-3 AM, JC-1); conditions: HepG2, 24 h; 2 at 3.5, 7.0, […]; 3 at 7.0, 14.0, 28.0 μM
Experimental: The changes in the ROS level, intracellular Ca^2+ and loss of ΔΨm in the HepG2 cells were detected by the DCFH-DA, Fluo-3 AM, and JC-1 fluorescent probes, respectively (see in Figure 5A). Green fluorescence represented higher ROS levels, more intracellular Ca^2+, and reduced ΔΨm.
Measurement of oxygen species (ROS), Determination of cell cycle and apoptotic related
intracellular Ca2+ and mitochondrial membrane proteins
and then resuspended in 1mL of DCFH-DA (100 μM) onto a PVDF membrane.
cytometry or fluorescence microscope.

[5] = tested on: HL-7702 normal liver cell; test: MTT assay, HL-7702 normal liver cell; format: cell-based; conditions: 48 h, normal liver cell; for inhibitive ratio HL-7702: 20 μmol/L
HepG2 cells [6] = test: Uptake of metal complexes in HepG2 cells (ICP-MS); format: cell-based, human; conditions: HepG2, 2 at 7.0 μM, 3 at […], 8 h
caspase-3 in HepG2 cells = test: Activated caspase-3 by flow cytometry; conditions: HepG2, at IC50, 24 h; control 0.0 %
Experimental: as §1, §2, §3, §4

HepG2 cells [7] = test: Apoptosis assay, Annexin V-FITC/PI flow cytometry; format: cell-based, human; conditions: HepG2, 28.0 μM, 24 h; control […]
pBR322 plasmid DNA = test: Agarose gel electrophoresis assay with pBR322 plasmid DNA; format: biochemical; conditions: pBR322 0.5 μg/μL, TBE buffer pH=8.5, 10 to 100 μM
Experimental: The DNA cleavage activity of 2, 3 and LY were tested by agarose gel electrophoresis assay using pBR322 plasmid DNA (0.5 μg/μL) in TBE buffer (pH=8.5). […] In contrast, under the same experimental conditions, when the concentration of 2 increased from 10 μM to 50 μM, the mobility of supercoiled DNA (form I) was reduced, but the relaxed form (form II) was not observed. When the concentration of 2 increased further to 70 μM, the form II DNA appeared. Almost all supercoiled DNA (form I) changed to relaxed DNA (form II) when the concentration of 2 reached 90 and 100 μM.
RT-qPCR was performed. The threshold cycle (Ct) values approval no. SCXK 2014-0002 and SYXK 2014-0003), […]
were housed at a sterile environment with conditions of […]
than 3 days before used. Complexes and LYwere all […]
is limited in 1% in final working solutions. KM mice. The large concentration of 2 in 10% (v/v) […]
ct-DNA CD spectrum as control.
The HepG2 xenograft mice were induced by
37 °C in the dark for 4 h.
The percent weight loss or gain was calculated […]
imaging system under a UV-Vis transilluminator.. Percent tumour growth inhibition after initiation of treatment with 2 and cisplatin were calculated by TGI= […]
initial for control group).
Animals were supplied by Guangxi Medical
University Laboratory Animal Centre (Guangxi, China, […]

[8] = MTT, mean ± SD from five independent experiments

Structure (SMILES): COc1cc2ccnc3c2c(c1OC)-c1ccccc1C3=O.COc1cc2ccnc3c2c(c1OC)-c1ccccc1C3=O.COc1cc2ccnc3c2c(c1OC)-c1ccccc1C3=O.ClC(Cl)Cl.ClC(Cl)Cl.ClC(Cl)Cl.[Mn+2].[O-][Cl+3]([O-])([O-])[O-].[O-][Cl+3]([O-])([O-])[O-] [Complex 3, [Mn(LY)3](ClO4)2·3CHCl3]
- proliferating cell nuclear antigen (PCNA) level [1]: decreased
- expression of Cdk2, p-Cdc25A, p53, p21 and p27 ([1]; increasing concentrations): increased
- Hoechst33258 fluorescence / apoptotic cell morphology (HepG2 cells [2]): stronger fluorescence in a dose-dependent manner
- inhibitive ratio BEL-7404 (BEL-7404; 20 μmol/L): 35.27±1.15%
- IC50 (BEL-7404; [8]): 36.2 ± 1.03 µM
- inhibitive ratio NCI-H460 (NCI-H460; 20 μmol/L): 54.93±0.86% and 54.93%
- IC50 (NCI-H460; [8]): 12.9 ± 3.62 µM
- cell population in S phase (HepG2 cells [3]; HepG2, 28.0 μM, 24 h, control 31.23%): 48.70%
- effect on cell cycle progression (HepG2 cells [3]; HepG2, 24 h): significant cell cycle arrest at the S phase
- proportion of activated caspase-8 cells (caspase-8 in HepG2 cells): 12.3%
- inhibitive ratio T-24 (T-24; 20 μmol/L): 45.42±1.66%
- IC50 (T-24; [8]): 15.4 ± 1.81 µM
- ROS, intracellular Ca2+ and ΔΨm (HepG2 cells [4]): caused overproduction of ROS, rising intracellular Ca^2+, and loss of Δψm
- inhibitive ratio HL-7702 [5]: 32.9%
- inhibitive ratio HL-7702 ([5]; listed as 3): 32.97±1.14%
- IC50 [5, 8]: 55.4 ± 3.65 µM
- distribution of the metal (Rh or Mn) in mitochondrial vs nuclear fraction (HepG2 cells [6]): higher in the mitochondrial fraction than in the nuclear fraction
- proportion of activated caspase-3 cells (caspase-3 in HepG2 cells): 18.8%
- percentages of cells undergoing apoptosis and necrosis (HepG2 cells [7]): 35.8%
- DNA cleavage activity on supercoiled pBR322 DNA (pBR322 plasmid DNA): cleavage of supercoiled DNA was still little

Reference: paper PMC5601738, “Facile total synthesis of lysicamine and the anticancer activities of the Ru^II, Rh^III, Mn^II and Zn^II complexes of lysicamine” (Oncotarget, 2017)
